The subject of one data set is HEI-OC1 cells. Kind of data set: Release of mitochondrial cyt c in HEI-OC1 cells with CisPt (flow cytometry). Type of data set: cell-based. As to the method:
Flow cytometry was also used to characterize the effect of LPT99 in the release of mitochondrial cyt c in HEI-OC1 cells in vitro with CisPt prevention. Results
(§1) The effect of LPT99 on proliferation of non-apoptotic cells was studied. A549 cells were cultured in the presence of LPT99 for up to 6 days; the cell number was monitored by flow cytometry, and doubling time was calculated.
A general note: Flow cytometry measures light scatter and fluorescence of single cells or particles in a stream.

The next data set relates to Cl-GABA-gated channel. Kind of data set: Off-target panel: Cl- GABA-gated channel. It is filed as binding. The procedure: (§2) To identify off-target activities of LPT99, its selectivity against a panel of receptors (44 G-protein-coupled receptors [GPCR] and 4 non-GPCR), 4 ion channels, and 3 transporters were analyzed. The cell line, HEI-OC1 (house ear institute organ of Corti 1), which expresses several characteristic markers of the organ of Corti sensory cells (Kalinec, et al. , Audiol. Neurootol. 2003, 8(4), 177-89), was used to evaluate the efficacy of LPT99 in preventing apoptosis due to […]. Cells were pre-incubated with LPT99, followed by […] for 24 hours.
(§3) For 14 of the tested targets—adenosine receptor 3 (A3); cholecystokinin: cholecystokinin receptor 1 (CCK1); melatonin receptor (MT1); neurokinin (NK2 and NK3); opioid (kOP and mOP); serotonin receptors (5HT-1A, 5HT-2A, 5HT−2B and 5HT−7); and vasopressin (V1A; Na+channel site 2 and Cl-GABA-gated channel)—the LPT99 affinity was >50%. At 1 μM, the inhibition of 13 of these targets was <50%, indicating a very low affinity with LPT99.

Another data set relates to A549 cells. Kind of data set: Proliferation of non-apoptotic A549 cells (flow cytometry, doubling time). Type of data set: cell-based. The conditions noted are these: A549 cells cultured up to 6 days; reversible on removal. The procedure:
as §1

The test system of another data set is opioid kOP. Put plainly: Off-target panel: kOP. It is filed as binding. The procedure:
as §2, §3

Data set [1] in a line: Metabolic profile and stability in microsomal and S9 hepatic fractions. It is filed as in vitro ADME, human, dog, rabbit, rat, and mouse. An excerpt:
The metabolic profile and stability of LPT99 was characterized in human, dog, rabbit, rat, and mouse microsomal and S9 fractions, and in human cytosolic fractions.

Data set [2] can be described thus: GLP acute systemic toxicity study, single IP dose, Sprague-Dawley rats. Type of data set: in vivo, rat. As to the method: A GLP acute systemic toxicity study was conducted with LPT99 administered via IP injection in Sprague-Dawley rats. The acute systemic toxicity study was preceded by a non-GLP maximum tolerated dose (MTD) toxicity study, via the same administration and test system, which determined the MTD of LTP99 to be 1000 mg/kg.
(§4) LPT99 was suspended in vehicle [0.5% w/v methylcellulose and 0.1% v/v TWEEN® 80 in Milli-Q water] and administered intraperitoneally to Sprague-Dawley rats as a single dose at the doses of 100 (low—G2/G2TK), 300 (mid—G3/G3TK), and 750 (high—G4/G4TK) mg/kg body weight. The rats in vehicle control groups (G1/G1TK) received the vehicle alone. The dose volume administered was at an equivolume of 10 mL/kg body weight for all groups.
(§5) The main toxicity groups consist of 15 rats/sex/group in G1 and G4 groups and 10 rats/sex/group in G2 and G3 groups. The toxicokinetic groups consisted of 6 males and 6 female rats each for the prevention groups, whereas the vehicle control group had 3 male and 3 female rats.

For data set [3], the system named is panel of receptors (44 GPCR and 4 non-GPCR), 4 ion channels, and 3 transporters. Put plainly: Off-target selectivity panel. Type of data set: binding. The conditions noted are these: 10 μM. As to the method: as §2, §3
Data set [4] deals with ion channels, including hERG potassium channels. Kind of data set: Effects on ion channels including hERG in CHO and HEK 293 cells. Type of data set: cell-based. An excerpt: Torsadogenic refers to the development of torsade de Pointes (TdP) arrhythmias
Background: Block of hERG is tested as a sign of cardiac risk.

Data set [5] can be described thus: Toxicokinetic assessment in the acute IP toxicity study. The conditions noted are these: all tested dose levels. It is filed as in vivo, rat. As to the method:
as §4, §5
Gender related differences were observed.

The next data set concerns the target T1, hERG (Homo sapiens, UniProt Q12809).
T1 construct: expressed in transfected cells; host or cells: CHO
Kind of data set: hERG automated patch clamp assay in hERG-CHO cells. Type of data set: cell-based. The conditions noted are these: detection limit 3.2 nM. An excerpt:
The potential cardiotoxicity of LPT99 was investigated in an assay using the hERG-CHO cells transfected with the automated patch clamp assay.

Data set [6] in a line: Plasma concentrations after TT administration of LPT99-CD in female Wistar rats. Type of data set: in vivo, rat.
The next data set concerns the target T2, caspase 9 (Homo sapiens, UniProt P55211).
T2 sequence (P55211 1-416): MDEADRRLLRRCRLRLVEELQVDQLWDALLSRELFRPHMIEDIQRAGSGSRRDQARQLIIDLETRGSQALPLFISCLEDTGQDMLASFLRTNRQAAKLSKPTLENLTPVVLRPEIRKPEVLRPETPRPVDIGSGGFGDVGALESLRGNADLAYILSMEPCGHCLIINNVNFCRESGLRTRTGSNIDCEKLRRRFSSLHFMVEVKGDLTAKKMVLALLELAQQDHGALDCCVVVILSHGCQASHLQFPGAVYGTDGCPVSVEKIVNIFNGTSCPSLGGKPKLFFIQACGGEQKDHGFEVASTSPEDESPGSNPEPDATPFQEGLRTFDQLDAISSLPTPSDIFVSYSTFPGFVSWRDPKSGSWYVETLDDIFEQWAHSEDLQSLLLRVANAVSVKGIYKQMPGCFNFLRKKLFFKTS
Kind of data set: Caspase 9 activation assay with recombinant proteins. Type of data set: biochemical. The conditions noted are these: in %. As to the method:
The specificity of LPT99 was tested in vitro on Apaf1, caspase 3, and caspase 9 (proteins from the apoptotic cascade), and a broad panel of potential pharmacological targets.
LPT99 inhibited the formation of the apoptosome complex composed by recombinant Apaf1, cyt c, deoxyadenosine triphosphate (dATP), and caspase 9. This activity was measured as inhibition of caspase 3 activation. […] To evaluate the specificity of the inhibition, an assay of caspase 3 and 9 activation was set up with recombinant proteins. The inhibitions of caspase 3 and 9 were 7.6±14.7 and 5.3±3.5, respectively, for LPT99.

For data set [7], the system named is noise-induced ABR threshold shift. Put plainly: Noise trauma ABR threshold study. Type of data set: in vivo. Conditions: at 10 and 21 days; TRAUMA+LPT99 group.
In data set [8] the test system is CisPt-induced hearing loss. Put plainly: Model of CisPt-induced hearing loss in rats (TT administration). The conditions noted are these: TT administration of LPT99 in hydrogel, dose dependent. It is filed as in vivo, rat. The procedure:
The protective effect of LPT99 was evaluated 3 days […] administration by functional measures, such as auditory brainstem response (ABR) threshold shift, DPOAE, and expression of biomarkers of apoptosis in cochlea and cytocochleograms.

Where only a bound is given, the exact number is not on record here.

T1 sequence (Q12809 whole entry): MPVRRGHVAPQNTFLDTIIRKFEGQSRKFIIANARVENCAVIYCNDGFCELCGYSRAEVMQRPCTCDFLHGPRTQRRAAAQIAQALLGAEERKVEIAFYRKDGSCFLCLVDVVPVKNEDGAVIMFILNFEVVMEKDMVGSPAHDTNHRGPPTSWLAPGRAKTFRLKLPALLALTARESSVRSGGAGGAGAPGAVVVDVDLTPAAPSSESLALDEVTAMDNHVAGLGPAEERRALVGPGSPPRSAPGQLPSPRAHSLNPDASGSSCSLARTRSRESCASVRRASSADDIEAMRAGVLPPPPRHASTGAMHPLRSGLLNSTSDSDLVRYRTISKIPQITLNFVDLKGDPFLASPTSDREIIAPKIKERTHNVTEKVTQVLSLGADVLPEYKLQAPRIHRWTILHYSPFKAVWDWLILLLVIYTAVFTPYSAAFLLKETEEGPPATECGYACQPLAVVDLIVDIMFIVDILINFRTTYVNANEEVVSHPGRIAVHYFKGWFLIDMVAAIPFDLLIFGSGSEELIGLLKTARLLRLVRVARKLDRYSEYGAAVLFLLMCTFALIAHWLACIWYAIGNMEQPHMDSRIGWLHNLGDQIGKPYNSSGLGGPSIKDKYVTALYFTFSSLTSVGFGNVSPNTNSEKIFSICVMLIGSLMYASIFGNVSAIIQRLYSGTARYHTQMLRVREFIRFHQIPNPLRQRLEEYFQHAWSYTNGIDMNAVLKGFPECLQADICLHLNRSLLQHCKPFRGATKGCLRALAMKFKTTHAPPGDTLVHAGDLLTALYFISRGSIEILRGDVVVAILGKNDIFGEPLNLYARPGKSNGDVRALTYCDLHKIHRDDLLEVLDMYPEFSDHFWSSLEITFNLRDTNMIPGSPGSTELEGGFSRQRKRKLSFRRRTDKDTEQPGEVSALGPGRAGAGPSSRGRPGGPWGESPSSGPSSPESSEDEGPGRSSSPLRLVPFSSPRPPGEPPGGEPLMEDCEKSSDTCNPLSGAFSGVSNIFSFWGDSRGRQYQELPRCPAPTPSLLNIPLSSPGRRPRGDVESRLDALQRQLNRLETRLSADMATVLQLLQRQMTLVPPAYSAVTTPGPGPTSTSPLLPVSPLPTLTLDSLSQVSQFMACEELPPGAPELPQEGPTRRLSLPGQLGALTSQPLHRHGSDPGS

`COc1ccc2[nH]cc(CCNC(=O)CC3C(=O)N(CCc4ccc(Cl)cc4Cl)CC(=O)N3CCc3cccs3)c2c1` (centres unmarked) [LPT99, 2-(4-(2,4-dichlorophenethyl)-3,6-dioxo-1-(2-(thiophen-2-yl)ethyl)piperazin-2-yl)-N-(2-(5-methoxy-1H-indol-3-yl)ethyl)acetamide]: in the data set with HEI-OC1 cells (HEI-OC1 cells, after CisPt alone or pre-incubated with LPT99), the “release of mitochondrial cyt c” value is listed as 68.1% ±1.0%. In addition, the “release of cyt c from mitochondria” value with HEI-OC1 cells (cellular model of CisPt-induced apoptosis) is given as “decreased release of cyt c from mitochondria”. Besides, in the data set on Cl-GABA-gated channel (1 μM), the “inhibition Cl-GABA-gated channel” value was below 50%. Also, the “affinity (inhibition) Cl-GABA-gated channel” value in the data set with Cl-GABA-gated channel (10 μM) was above 50%. Also, in the data set with A549 cells, the “effect on proliferation of non-apoptotic cells” value is “delayed cellular proliferation by accumulation of cells at the G1 phase of the cell cycle”. Further, in the data set with opioid kOP (1 μM), the “inhibition kOP” value was below 50%. For the same compound, in the data set on opioid kOP (10 μM), the “affinity (inhibition) kOP” value is above 50%. The “number of metabolites formed through phase I biotransformation” value in data set [1] is at most 9. In addition, in data set [1] (microsomal and S9 hepatic fractions, all tested species), the “metabolized after 1 hour” value is above 90%. Moreover, the food consumption entry in [2] (750 mg/kg, males days 1-7, females days 1-4, vs control) is on record as “statistically significant reduction in the food consumption”. The tolerability entry in [2] (single IP 100, 300, 750 mg/kg) is “generally safe and well tolerated”. Further, in data set [3], the “in vitro inhibition for 41 of the tested targets” value was below 50%. Moreover, the torsadogenic risk entry in [4] is “low torsadogenic risk”. Besides, the “exposure in females vs males” value in data set [5] was 1.5-5.5 fold. Moreover, the “safety margin (hERG IC50 vs plasma detection limit)” value at hERG is reported as above 1063. In addition, the “plasma concentration of 3.2 nM as fraction of administered dose” value in data set [6] (50 μM dose) turned out to be 0.006%; in data set [6] (100 μM dose) it was 0.003%; in data set [6] (200 μM dose), 0.0016%. Further, in [6] (TT administration), the “plasma level after TT administration (not detectable; detection limit)” value is recorded as below 3.2 nM. For the same compound, the “Plasma LPT99 concentrations (BLLQ)” value in [6] (female Wistar rats, 1 hour and 2, 4, 7, 15 days after single 50 μL TT dose of 50, 100, or 200 μM LPT99-CD) is given as below 2 ng/mL. The “inhibition of caspase 9” value on caspase 9 is reported as 5.3±3.5. Also, in data set [7], the “ABR Threshold shift after noise exposure” value is recorded as “back at basal levels”. In addition, the “protection against CisPt-induced hearing loss vs vehicle control” value in data set [8] is listed as “protected against CisPt-induced hearing loss”.

Values taken from US20220062166A1, “Self-Gelling Solutions for Administration of Therapeutics to the Inner Ear” (Spiral Therapeutics, Inc., priority 2019, published 2022).
